In one assay the target is mTOR/GbL/Raptor (mTORC1) (Homo sapiens, UniProt P42345). Briefly: mTOR/GbL/Raptor (mTORC1) ELISA Assay. Type of assay: biochemical. Particulars: 4EBP1 used as substrate for mTOR/GbL/raptor kinase; read-out: PI3K biochemical IC50 values mTOR. How it is done: The measurement of mTORC1 enzyme activity was performed in an ELISA assay format following the phosphorylation of 4E-BP1 protein. All experiments were performed in the 384-well format. Generally, 0.5 μL DMSO containing varying concentrations of the test Compound was mixed with 15 μL enzyme solution. Kinase reactions were initiated with the addition of 15 μL of substrates-containing solution. The assay conditions were as follows; 0.2 nM mTORC1, 10 μM ATP and 50 nM NHis-tagged 4E-BPI in 20 mM Hepes, pH 7.2, 1 mM DTT, 50 mM NaCl, 10 mM MnCl2, 0.02 mg/mL BSA, 0.01% CHAPS, 50 mM β-glycerophosphate. Following an incubation of 120 minutes at ambient temperature, 20 μL of the reaction volume was transferred to a Ni-Chelate-coated 384-well plate. The binding step of the 4E-BP1 protein proceeded for 60 minutes, followed by washing 4 times each with 50 μL of Tris-buffered saline solution (TBS). Anti-phospho-4E-BP1 rabbit-IgG (20 μL, 1:5000) in 5% BSA-TBST (0.2% Tween-20 in TBS) was added and further incubated for 60 minutes. Incubation with a secondary HRP-tagged anti-IgG was similarly performed after washing off the primary antibody (4 washes of 50 μL). Following the final wash step with TBST, 20 μL of SuperSignal ELISA Femto (Pierce Biotechnology) was added and the luminescence measured using an EnVision plate reader.
Background: An ELISA detects its analyte on a solid surface through an enzyme-linked reagent.

In a further assay the target is PI3Kα (Homo sapiens, UniProt P42336). Description: PI3K Biochemical Assay (ATP consumed, luciferase-luciferin chemiluminescence). Particulars: for IC50: PIP2 used as substrate, read-out: PI3K biochemical IC50 values PI3Kα; for specificity among PI3Kα, PI3Kβ, PI3Kδ, PI3Kγ and mTOR: summary of Table 3. How it is done: (§1) PI3Kα activity is measured as the percent of ATP consumed following the kinase reaction using luciferase-luciferin-coupled chemiluminescence. Reactions were conducted in 384-well white, medium binding microtiter plates (Greiner). Kinase reactions were initiated by combining test compounds, ATP, substrate (PIP2), and kinase in a 20 μL volume in a buffer solution. The standard PI3Kalpha assay buffer is composed 50 mM Tris, pH 7.5, 1 mM EGTA, 10 mM MgCl2, 1 mM DTT and 0.03% CHAPS. The standard assay concentrations for enzyme, ATP, and substrate are 1.5 nM, 1 μM, and 10 μM, respectively. The reaction mixture was incubated at ambient temperature for approximately 2 h. Following the kinase reaction, a 10 μL aliquot of luciferase-luciferin mix (Promega Kinase-Glo) was added and the chemiluminescence signal measured using a Victor2 plate reader (Perkin Elmer). Total ATP consumption was limited to 40-60% and IC50 values of control compounds correlate well with literature references. Substituting PI3Kα with PI3Kβ, PI3Kγ, or PI3Kδ, the inhibitory activity of the compounds for the other isoforms of I3K were measured.
Chain of PI3Kα (P42336 whole entry): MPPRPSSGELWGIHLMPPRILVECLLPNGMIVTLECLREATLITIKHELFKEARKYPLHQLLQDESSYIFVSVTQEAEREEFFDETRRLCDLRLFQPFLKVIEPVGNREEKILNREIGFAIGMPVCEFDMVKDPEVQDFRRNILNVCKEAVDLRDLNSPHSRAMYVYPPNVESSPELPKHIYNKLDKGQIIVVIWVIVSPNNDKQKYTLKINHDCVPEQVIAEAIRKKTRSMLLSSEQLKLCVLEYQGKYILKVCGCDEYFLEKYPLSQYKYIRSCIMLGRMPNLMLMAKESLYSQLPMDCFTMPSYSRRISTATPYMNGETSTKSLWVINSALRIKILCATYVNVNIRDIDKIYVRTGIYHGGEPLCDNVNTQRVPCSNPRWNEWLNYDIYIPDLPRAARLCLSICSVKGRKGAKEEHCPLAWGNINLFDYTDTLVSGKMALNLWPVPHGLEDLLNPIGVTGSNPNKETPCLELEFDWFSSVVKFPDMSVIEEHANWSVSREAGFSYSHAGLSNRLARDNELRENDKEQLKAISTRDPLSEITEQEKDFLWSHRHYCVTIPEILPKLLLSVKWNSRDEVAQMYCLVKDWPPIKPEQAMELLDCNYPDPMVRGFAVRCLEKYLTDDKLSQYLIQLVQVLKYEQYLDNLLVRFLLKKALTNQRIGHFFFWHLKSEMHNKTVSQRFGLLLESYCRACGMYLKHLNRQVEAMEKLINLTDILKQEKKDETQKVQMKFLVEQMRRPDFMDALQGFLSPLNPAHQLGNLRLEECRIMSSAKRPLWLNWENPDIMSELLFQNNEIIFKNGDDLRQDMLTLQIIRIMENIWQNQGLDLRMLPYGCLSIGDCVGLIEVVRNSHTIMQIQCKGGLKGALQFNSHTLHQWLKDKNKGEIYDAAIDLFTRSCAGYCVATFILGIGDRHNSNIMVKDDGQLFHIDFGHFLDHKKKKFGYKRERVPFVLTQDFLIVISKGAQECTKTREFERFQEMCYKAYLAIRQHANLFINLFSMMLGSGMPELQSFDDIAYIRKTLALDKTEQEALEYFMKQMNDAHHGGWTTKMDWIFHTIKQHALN
Chain of PI3Kα (P27986 whole entry partner): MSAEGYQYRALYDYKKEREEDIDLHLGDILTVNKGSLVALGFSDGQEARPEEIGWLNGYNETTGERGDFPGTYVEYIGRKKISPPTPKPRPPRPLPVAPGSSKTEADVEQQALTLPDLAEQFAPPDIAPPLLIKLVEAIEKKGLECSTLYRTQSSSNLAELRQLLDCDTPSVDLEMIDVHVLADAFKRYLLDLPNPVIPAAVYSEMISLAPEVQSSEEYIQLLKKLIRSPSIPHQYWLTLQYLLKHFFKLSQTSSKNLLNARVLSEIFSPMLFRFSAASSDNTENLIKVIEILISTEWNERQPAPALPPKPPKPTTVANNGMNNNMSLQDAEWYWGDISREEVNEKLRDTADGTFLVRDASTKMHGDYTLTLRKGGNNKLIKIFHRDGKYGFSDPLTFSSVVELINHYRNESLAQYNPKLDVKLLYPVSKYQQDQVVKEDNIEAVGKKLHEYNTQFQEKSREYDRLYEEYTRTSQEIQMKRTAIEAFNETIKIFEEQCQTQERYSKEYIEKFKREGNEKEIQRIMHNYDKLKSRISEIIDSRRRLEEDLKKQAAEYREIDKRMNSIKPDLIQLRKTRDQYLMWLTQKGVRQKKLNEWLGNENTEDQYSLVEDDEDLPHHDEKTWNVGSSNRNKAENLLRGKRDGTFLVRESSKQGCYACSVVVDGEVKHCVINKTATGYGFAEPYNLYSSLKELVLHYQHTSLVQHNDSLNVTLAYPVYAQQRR

Another assay has as its target PI3Kα E545K (Homo sapiens, UniProt P42336, E545K). Description: PI3K Biochemical Assay. Particulars: PIP2 used as substrate. How it is done:
as §1

In the next assay the target is PI3Kα H1047R (Homo sapiens, UniProt P42336, H1047R). Description: PI3K Biochemical Assay. The note with it: PIP2 used as substrate. How it is done:
as §1

The target in the next assay is PI3Kγ (Homo sapiens, UniProt P48736). Description: PI3K Biochemical Assay. The note with it: PIP2 used as substrate. Here is the method:
as §1

A further assay addresses PI3Kδ (Homo sapiens, UniProt O00329). Description: PI3K Biochemical Assay. The note with it: PIP2 used as substrate; read-out: PI3K biochemical IC50 values P13Kδ. How it is done: as §1

Chain of PI3Kγ (P48736 whole entry): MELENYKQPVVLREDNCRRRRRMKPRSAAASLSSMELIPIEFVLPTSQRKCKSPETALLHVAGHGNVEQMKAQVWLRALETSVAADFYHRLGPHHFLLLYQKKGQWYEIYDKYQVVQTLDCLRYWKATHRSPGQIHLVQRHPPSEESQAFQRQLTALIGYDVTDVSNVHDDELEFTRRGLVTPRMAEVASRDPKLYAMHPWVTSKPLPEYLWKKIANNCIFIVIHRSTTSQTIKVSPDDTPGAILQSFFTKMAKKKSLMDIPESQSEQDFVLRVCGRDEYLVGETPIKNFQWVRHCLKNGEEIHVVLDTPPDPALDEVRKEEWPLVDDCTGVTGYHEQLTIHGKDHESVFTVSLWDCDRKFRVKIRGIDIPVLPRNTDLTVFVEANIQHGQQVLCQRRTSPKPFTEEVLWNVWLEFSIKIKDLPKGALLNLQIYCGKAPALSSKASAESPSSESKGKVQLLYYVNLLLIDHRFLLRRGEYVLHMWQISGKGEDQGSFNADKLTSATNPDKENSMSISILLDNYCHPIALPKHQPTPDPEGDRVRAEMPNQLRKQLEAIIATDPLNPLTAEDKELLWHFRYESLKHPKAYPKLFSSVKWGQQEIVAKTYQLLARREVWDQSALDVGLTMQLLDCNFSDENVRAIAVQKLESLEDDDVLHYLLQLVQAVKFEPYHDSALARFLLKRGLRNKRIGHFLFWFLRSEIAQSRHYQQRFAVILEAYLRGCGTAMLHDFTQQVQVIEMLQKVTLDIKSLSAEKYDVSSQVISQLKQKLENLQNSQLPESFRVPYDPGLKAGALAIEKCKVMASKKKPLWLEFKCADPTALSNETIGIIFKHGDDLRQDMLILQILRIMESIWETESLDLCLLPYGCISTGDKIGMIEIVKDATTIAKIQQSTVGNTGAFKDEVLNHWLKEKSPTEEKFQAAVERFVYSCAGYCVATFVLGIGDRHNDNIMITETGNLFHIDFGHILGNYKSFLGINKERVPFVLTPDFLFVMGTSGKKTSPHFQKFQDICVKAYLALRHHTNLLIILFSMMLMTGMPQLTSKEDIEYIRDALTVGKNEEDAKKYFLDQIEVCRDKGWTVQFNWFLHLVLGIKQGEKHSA
Chain of PI3Kδ (O00329 whole entry): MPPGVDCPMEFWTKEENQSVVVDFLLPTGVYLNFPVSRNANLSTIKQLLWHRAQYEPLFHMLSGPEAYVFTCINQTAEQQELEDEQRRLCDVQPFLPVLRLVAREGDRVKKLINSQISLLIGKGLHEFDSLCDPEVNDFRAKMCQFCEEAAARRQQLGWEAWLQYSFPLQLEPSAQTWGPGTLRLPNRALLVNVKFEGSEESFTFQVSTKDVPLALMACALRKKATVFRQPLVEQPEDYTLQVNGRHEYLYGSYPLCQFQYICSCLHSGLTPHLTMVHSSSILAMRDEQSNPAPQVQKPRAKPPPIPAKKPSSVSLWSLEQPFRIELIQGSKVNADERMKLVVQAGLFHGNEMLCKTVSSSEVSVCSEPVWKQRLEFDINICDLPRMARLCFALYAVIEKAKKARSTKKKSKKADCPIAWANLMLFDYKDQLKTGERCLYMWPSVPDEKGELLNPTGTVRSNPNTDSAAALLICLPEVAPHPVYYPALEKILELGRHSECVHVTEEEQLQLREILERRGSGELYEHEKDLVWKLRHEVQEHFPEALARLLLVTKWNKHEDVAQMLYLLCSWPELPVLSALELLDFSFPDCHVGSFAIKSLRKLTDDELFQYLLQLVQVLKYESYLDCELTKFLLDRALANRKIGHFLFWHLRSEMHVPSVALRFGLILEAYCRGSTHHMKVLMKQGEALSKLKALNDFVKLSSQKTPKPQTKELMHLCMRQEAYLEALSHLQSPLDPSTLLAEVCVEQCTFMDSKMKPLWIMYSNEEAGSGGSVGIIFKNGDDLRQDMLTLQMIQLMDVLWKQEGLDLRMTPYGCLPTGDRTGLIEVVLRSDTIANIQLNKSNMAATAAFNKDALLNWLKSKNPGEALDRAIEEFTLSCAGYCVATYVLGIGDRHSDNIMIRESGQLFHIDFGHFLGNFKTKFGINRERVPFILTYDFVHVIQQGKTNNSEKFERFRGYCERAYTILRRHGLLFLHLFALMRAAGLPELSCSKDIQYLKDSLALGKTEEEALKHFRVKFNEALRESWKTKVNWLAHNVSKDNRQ
Chain of PI3Kδ (P27986 whole entry partner): as the sequence (P27986 whole entry partner) above
Chain of PI3Kα H1047R (P42336 whole entry H1047R): as the sequence (P42336 whole entry) above, with H1047R counted along it
Chain of PI3Kα H1047R (P27986 whole entry partner): as the sequence (P27986 whole entry partner) above
Chain of PI3Kα E545K (P42336 whole entry E545K): as the sequence (P42336 whole entry) above, with E545K counted along it
Chain of PI3Kα E545K (P27986 whole entry partner): as the sequence (P27986 whole entry partner) above

The term IC50 denotes the concentration needed to halve the response being measured. For `CCNc1nc2ccc(-c3ccc4c(c3)CN(c3ncnc(NCC)c3C)CCO4)cc2[nH]1` [Compound 699], the IC50 on mTOR/GbL/Raptor (mTORC1) came out at 252 nM; on PI3Kα it was 6 nM; against PI3Kα E545K, 5 nM; against PI3Kα H1047R, 6 nM; against PI3Kγ, 158 nM; at PI3Kδ, 440 nM. Besides, the “specificity among PI3Kα, PI3Kβ, PI3Kδ, PI3Kγ and mTOR” value (from here on “specificity among PI3Kα, PI3Kβ, PI3Kδ”) at PI3Kα is “specific for PI3Kα isoforms”.
For `COc1ccc2c(N3CCOc4ccc(-c5cnc6nc(C)[nH]c6c5)cc4C3)nc(CN(C)C)nc2c1` [Compound 696], the IC50 was found to be 381 nM on mTOR/GbL/Raptor (mTORC1); 3 nM on PI3Kα; 9 nM against PI3Kα E545K; 5 nM on PI3Kα H1047R; 1800 nM on PI3Kγ; 149 nM at PI3Kδ. Also, the “specificity among PI3Kα, PI3Kβ, PI3Kδ” value on PI3Kα is reported as “specific for PI3Kα isoforms”.
In the case of `CCNc1nc2ccc(-c3ccc4c(c3)CN(c3ccnc5cc(F)ccc35)CCO4)cc2[nH]1` [Compound 698], the IC50 at mTOR/GbL/Raptor (mTORC1) worked out at 120 nM; at PI3Kα, 3 nM; against PI3Kα E545K, 6 nM; against PI3Kα H1047R it was 7 nM; against PI3Kγ, 159 nM; at PI3Kδ, 162 nM. For the same molecule, the “specificity among PI3Kα, PI3Kβ, PI3Kδ” value at PI3Kα is on record as “specific for PI3Kα isoforms”.
For `Cc1nc2ncc(-c3ccc4c(c3)CN(c3nc(CN(C)C)nc5c3CC(C)(C)CC5)CCO4)cc2[nH]1` [Compound 693], the IC50 at mTOR/GbL/Raptor (mTORC1) was 6 nM; at PI3Kα, 2 nM; at PI3Kα E545K, 5 nM; against PI3Kα H1047R, 3 nM; against PI3Kγ it was 1120 nM; at PI3Kδ it was 575 nM.
For the molecule `Cc1nc2cc(-c3ccc4c(c3)CN(c3nc(CN(C)C)nc(C)c3C(C)C)CCO4)cnc2[nH]1` [Compound 694], the IC50 was 16 nM on mTOR/GbL/Raptor (mTORC1); 4 nM on PI3Kα; 6 nM on PI3Kα E545K; 5 nM against PI3Kα H1047R; 1850 nM against PI3Kγ; 831 nM on PI3Kδ.

The values above are taken from patent US20140080810A1 (Exelixis, Inc., priority 2010, published 2014).
